Results taken from ChEMBL document CHEMBL1201862, “PubChem BioAssay data set” (2004).
Calls of active or inactive are those of the source.

Columns and labels:
[1] = molecular target: Serine/threonine-protein kinase pim-1 (Homo sapiens, UniProt P11309); assay type: functional
Activin receptor type-1 = molecular target: T1, Activin receptor type-1 (Homo sapiens, UniProt Q04771); test: Navigating the Kinome. Panel member name: ACVR1; assay type: functional
T1 sequence (Q04771 whole entry): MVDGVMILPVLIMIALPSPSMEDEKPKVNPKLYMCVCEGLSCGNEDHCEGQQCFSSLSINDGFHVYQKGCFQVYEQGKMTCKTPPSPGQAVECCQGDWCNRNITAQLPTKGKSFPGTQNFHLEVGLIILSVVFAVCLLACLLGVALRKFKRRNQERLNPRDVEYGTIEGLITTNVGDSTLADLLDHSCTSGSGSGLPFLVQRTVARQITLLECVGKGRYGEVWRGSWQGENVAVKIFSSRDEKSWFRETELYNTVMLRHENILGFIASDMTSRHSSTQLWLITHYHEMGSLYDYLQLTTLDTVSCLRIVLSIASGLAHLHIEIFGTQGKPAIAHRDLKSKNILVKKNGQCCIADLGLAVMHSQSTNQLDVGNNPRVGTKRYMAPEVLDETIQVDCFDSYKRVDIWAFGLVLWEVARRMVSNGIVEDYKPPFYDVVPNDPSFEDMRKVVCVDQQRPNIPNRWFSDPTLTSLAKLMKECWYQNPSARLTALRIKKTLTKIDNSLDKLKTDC

[2] = molecular target: Mast/stem cell growth factor receptor Kit (Homo sapiens, UniProt P10721); assay type: functional;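 also: KIT entry within a kinase panel assay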
[3] = molecular target: Dual specificity protein kinase CLK4 (Homo sapiens, UniProt Q9HAZ1); assay type: functional
[4] = molecular target: Dual specificity tyrosine-phosphorylation-regulated kinase 1A (Homo sapiens, UniProt Q13627); assay type: functional;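 also: measured against DYRK1A as one member of a broad kinome profiling panel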
[5] = molecular target: ALK tyrosine kinase receptor (Homo sapiens, UniProt Q9UM73); assay type: functional;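 also: ALK tested as one member of a kinase panel screen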
[6] = molecular target: Macrophage colony-stimulating factor 1 receptor (Homo sapiens, UniProt P07333); assay type: functional;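 also: value comes from the Navigating the Kinome screening panel, CSF1R member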
[7] = molecular target: Protein kinase C theta type (Homo sapiens, UniProt Q04759); test: Navigating the Kinome. Panel member name: PRKCQ; assay type: functional
[8] = molecular target: Tyrosine-protein kinase JAK3 (Homo sapiens, UniProt P52333); assay type: functional
[9] = molecular target: Mitogen-activated protein kinase kinase kinase kinase 4 (Homo sapiens, UniProt O95819); assay type: functional
[10] = molecular target: Tyrosine-protein kinase Lck (Homo sapiens, UniProt P06239); assay type: functional;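 also: lck was assayed as one member of a kinase panel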
[11] = molecular target: Casein kinase I isoform alpha (Homo sapiens, UniProt P48729); assay type: functional
[12] = molecular target: Macrophage-stimulating protein receptor (Homo sapiens, UniProt Q04912); test: Navigating the Kinome. Panel member name: MST1R; assay type: functional
[13] = molecular target: Calcium/calmodulin-dependent protein kinase type II subunit alpha (Homo sapiens, UniProt Q9UQM7); test: Navigating the Kinome. Panel member name: CAMK2A; assay type: functional
[14] = molecular target: Vascular endothelial growth factor receptor 2 (Homo sapiens, UniProt P35968); assay type: functional
Cytochrome P450 1A2 = molecular target: T2, Cytochrome P450 1A2 (Homo sapiens, UniProt P05177);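 also: PubChem cytochrome P450 panel assay, CYP1A2 panel member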
T2 sequence (P05177 whole entry): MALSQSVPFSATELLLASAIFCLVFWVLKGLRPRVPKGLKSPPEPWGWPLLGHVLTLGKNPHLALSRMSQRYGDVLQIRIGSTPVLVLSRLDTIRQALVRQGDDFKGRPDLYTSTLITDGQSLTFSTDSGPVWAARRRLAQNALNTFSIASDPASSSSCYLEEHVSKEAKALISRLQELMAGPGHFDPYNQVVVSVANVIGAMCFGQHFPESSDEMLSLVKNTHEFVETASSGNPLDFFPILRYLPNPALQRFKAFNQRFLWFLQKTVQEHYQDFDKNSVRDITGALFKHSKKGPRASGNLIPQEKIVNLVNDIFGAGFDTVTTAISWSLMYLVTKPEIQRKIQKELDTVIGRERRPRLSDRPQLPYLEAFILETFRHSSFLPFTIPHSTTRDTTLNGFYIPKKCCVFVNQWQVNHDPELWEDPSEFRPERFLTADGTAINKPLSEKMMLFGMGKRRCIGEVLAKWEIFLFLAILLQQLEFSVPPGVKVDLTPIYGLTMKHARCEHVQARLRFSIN

[15] = molecular target: Insulin-like growth factor 1 receptor (Homo sapiens, UniProt P08069); test: Navigating the Kinome. Panel member name: IGF1R; assay type: functional
[16] = molecular target: Inhibitor of nuclear factor kappa-B kinase subunit epsilon (Homo sapiens, UniProt Q14164); test: Navigating the Kinome. Panel member name: IKBKE; assay type: functional
[17] = molecular target: Death-associated protein kinase 3 (Homo sapiens, UniProt O43293); assay type: functional;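 also: measured as one member of a kinome-wide profiling panel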
[18] = molecular target: Tyrosine-protein kinase Fyn (Homo sapiens, UniProt P06241); assay type: functional
[19] = molecular target: MAP/microtubule affinity-regulating kinase 3 (Homo sapiens, UniProt P27448); assay type: functional;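 also: MARK3 affinity measured as one member of a kinome panel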
[20] = molecular target: BDNF/NT-3 growth factors receptor (Homo sapiens, UniProt Q16620); assay type: functional;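 also: NTRK2 measured as one member of a broad kinome-wide kinase profiling panel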
[21] = molecular target: Glycogen synthase kinase-3 beta (Homo sapiens, UniProt P49841); assay type: functional;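 also: value comes from a broad kinome profiling panel, with GSK3B as the panel member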
[22] = molecular target: Dual specificity tyrosine-phosphorylation-regulated kinase 1B (Homo sapiens, UniProt Q9Y463); test: Navigating the Kinome. Panel member name: DYRK1B; assay type: functional
[23] = molecular target: Rho-associated protein kinase 1 (Homo sapiens, UniProt Q13464); assay type: functional;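 also: measured within a broad kinome-wide panel profiling many kinases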
[24] = molecular target: Vascular endothelial growth factor receptor 1 (Homo sapiens, UniProt P17948); assay type: functional;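 also: measured within a kinome-wide profiling panel, FLT1 as the panel member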
[25] = molecular target: Cyclin-dependent kinase 8 (Homo sapiens, UniProt P49336); test: Navigating the Kinome. Panel member name: CDK8; assay type: functional
[26] = molecular target: Ribosomal protein S6 kinase alpha-3 (Homo sapiens, UniProt P51812); assay type: functional;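 also: measured within a kinome-wide profiling panel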
[27] = molecular target: Proto-oncogene tyrosine-protein kinase receptor Ret (Homo sapiens, UniProt P07949); assay type: functional;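 also: measured within a kinome-wide profiling panel, RET as the panel member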
[28] = molecular target: Tyrosine-protein kinase BTK (Homo sapiens, UniProt Q06187); assay type: functional
[29] = molecular target: Fibroblast growth factor receptor 1 (Homo sapiens, UniProt P11362); assay type: functional
[30] = molecular target: Glycogen synthase kinase-3 alpha (Homo sapiens, UniProt P49840); assay type: functional;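 also: GSK3A result taken from a broad kinome-wide kinase panel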
[31] = molecular target: Cyclin-dependent kinase 7 (Homo sapiens, UniProt P50613); assay type: functional;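 also: value comes from a kinome-wide kinase profiling panel in which CDK7 is one member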

Vascular endothelial growth factor receptor 2, sequence (P35968 whole entry): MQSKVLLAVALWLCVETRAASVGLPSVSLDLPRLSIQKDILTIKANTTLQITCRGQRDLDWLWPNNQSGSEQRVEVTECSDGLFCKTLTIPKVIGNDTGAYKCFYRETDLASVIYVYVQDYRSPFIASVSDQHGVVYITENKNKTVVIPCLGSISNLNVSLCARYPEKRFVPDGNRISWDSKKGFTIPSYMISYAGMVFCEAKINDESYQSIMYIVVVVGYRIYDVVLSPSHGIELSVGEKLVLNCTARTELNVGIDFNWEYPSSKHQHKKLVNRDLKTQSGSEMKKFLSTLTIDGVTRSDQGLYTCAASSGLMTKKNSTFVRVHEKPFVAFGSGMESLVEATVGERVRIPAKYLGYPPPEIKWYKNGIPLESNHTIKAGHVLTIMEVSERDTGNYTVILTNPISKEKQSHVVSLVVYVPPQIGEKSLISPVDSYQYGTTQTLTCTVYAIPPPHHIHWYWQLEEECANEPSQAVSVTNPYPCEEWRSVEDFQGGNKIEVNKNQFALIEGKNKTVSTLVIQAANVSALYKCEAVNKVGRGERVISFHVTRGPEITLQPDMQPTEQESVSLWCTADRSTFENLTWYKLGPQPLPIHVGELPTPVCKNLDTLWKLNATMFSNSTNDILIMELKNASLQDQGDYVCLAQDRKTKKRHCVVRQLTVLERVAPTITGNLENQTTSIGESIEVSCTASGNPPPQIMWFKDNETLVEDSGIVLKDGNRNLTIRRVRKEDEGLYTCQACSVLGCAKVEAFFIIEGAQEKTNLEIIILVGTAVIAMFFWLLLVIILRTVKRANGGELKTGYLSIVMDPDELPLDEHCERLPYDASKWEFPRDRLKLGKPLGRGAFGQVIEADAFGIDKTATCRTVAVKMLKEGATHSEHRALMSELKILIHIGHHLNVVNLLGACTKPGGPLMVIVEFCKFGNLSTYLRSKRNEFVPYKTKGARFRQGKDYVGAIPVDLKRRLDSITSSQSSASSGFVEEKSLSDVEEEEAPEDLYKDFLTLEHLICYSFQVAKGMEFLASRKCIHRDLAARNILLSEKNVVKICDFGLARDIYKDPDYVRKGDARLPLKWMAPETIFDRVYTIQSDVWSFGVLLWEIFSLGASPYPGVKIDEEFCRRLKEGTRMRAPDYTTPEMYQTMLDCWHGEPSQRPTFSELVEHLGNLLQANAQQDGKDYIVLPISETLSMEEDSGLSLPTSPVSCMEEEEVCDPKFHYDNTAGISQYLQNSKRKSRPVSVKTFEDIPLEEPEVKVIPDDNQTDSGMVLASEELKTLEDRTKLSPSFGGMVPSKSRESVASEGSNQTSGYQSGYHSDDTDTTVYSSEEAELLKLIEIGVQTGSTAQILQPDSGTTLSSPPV
Macrophage-stimulating protein receptor, sequence (Q04912 25-304 limits assumed): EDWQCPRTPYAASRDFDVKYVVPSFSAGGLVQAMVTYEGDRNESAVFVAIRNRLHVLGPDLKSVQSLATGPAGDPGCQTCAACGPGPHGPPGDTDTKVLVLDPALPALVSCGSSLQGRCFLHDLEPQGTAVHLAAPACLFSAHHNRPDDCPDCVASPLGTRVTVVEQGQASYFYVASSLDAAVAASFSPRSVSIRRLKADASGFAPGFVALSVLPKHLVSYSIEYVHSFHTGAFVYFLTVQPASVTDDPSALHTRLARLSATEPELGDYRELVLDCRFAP
Macrophage-stimulating protein receptor, sequence (Q04912 310-1400 limits assumed): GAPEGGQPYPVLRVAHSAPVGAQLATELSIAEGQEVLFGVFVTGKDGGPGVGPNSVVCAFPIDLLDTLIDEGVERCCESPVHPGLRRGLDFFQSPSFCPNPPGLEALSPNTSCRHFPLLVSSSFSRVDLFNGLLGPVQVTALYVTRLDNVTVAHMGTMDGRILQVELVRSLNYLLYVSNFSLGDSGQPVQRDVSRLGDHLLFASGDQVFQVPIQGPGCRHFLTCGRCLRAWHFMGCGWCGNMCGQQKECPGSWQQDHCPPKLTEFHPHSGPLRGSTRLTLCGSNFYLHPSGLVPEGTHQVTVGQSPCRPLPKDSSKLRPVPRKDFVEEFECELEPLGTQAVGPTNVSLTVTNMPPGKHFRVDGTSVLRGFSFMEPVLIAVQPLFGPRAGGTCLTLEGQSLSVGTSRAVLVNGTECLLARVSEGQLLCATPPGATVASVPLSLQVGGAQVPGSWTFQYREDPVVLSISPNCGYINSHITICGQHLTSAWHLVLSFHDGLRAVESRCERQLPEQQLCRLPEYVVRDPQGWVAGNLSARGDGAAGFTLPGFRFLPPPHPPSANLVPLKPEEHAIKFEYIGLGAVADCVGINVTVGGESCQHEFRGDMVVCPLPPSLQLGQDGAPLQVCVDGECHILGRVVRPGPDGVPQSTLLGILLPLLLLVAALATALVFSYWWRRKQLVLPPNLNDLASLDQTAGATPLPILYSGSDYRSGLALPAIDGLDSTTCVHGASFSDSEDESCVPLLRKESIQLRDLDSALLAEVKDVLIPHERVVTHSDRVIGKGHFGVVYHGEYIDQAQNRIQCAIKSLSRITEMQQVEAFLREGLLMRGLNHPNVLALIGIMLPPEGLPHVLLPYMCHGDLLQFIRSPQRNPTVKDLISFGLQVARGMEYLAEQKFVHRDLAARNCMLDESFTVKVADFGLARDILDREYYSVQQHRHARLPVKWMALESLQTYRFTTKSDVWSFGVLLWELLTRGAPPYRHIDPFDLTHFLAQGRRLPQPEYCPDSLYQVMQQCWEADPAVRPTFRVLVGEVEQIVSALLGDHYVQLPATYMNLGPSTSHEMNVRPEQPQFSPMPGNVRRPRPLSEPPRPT
Vascular endothelial growth factor receptor 1, sequence (P17948 whole entry): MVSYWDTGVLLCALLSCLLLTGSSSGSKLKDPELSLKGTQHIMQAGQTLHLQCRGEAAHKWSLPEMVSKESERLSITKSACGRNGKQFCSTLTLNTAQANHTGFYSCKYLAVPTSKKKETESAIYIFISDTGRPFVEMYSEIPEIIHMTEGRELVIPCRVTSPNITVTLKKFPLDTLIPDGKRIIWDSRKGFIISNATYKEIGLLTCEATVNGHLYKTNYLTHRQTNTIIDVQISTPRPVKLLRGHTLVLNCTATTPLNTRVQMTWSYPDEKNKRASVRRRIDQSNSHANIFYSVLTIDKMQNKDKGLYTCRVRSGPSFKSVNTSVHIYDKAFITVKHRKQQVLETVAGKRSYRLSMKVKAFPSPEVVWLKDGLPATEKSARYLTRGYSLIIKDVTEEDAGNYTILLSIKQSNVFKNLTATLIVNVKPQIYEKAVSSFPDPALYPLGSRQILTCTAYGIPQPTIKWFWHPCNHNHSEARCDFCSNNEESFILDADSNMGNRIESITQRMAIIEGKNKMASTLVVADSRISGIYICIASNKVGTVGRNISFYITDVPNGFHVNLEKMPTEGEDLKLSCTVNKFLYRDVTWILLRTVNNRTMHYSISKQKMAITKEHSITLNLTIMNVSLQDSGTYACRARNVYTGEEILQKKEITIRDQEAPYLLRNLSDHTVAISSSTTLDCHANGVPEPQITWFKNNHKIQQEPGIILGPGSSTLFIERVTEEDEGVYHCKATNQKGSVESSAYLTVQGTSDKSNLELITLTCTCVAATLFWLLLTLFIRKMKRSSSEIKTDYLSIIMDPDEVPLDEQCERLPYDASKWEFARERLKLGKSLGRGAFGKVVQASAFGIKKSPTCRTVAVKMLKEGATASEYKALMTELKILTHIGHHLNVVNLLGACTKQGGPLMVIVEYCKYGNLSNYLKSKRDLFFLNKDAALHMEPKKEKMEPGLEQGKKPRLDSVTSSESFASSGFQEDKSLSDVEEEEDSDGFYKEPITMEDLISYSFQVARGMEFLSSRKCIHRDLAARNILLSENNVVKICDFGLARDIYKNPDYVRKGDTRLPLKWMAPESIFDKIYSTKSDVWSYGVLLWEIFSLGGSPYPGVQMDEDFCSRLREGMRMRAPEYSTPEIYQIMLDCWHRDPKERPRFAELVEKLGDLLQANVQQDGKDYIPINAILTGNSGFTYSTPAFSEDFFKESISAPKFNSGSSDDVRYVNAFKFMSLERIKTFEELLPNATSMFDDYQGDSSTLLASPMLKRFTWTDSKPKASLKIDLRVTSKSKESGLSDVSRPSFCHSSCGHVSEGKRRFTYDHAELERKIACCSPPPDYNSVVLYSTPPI
Mast/stem cell growth factor receptor Kit, sequence (P10721 whole entry): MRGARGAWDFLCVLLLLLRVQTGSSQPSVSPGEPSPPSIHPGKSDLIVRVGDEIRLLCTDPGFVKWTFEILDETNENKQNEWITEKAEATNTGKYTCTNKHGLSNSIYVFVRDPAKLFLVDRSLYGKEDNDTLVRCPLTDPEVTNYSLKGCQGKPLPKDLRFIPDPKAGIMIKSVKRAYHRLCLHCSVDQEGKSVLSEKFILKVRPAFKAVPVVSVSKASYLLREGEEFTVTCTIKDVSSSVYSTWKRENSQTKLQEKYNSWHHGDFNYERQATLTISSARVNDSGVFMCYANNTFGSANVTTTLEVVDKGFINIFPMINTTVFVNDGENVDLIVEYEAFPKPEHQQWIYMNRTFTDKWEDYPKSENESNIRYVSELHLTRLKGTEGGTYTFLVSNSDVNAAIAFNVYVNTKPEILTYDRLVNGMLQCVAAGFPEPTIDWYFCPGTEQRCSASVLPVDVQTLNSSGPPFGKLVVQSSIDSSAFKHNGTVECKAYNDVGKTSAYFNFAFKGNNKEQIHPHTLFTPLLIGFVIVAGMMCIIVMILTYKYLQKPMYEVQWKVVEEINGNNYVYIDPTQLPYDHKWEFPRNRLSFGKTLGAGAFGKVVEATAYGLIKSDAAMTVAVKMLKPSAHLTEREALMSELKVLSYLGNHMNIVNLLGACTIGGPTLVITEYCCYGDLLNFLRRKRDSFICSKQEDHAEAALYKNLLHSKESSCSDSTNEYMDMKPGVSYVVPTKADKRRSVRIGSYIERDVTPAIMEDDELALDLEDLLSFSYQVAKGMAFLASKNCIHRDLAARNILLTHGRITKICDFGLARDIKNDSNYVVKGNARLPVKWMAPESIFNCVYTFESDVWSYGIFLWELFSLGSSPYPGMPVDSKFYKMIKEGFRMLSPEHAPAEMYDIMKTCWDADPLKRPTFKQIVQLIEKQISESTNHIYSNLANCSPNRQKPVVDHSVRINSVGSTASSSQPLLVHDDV

NC(=O)c1ccc(-c2nc(-c3ccc4c(c3)OCO4)c(-c3ccccn3)[nH]2)cc1 [SB-431542]
Ki [1]: > 6.31 µM (inactive)
Ki (Activin receptor type-1): > 3.98 µM (inactive)
Ki [2]: > 6.31 µM (inactive)
Ki [3]: > 2.51 µM (inactive)
Ki [4]: > 2 µM (inactive)
Ki [5]: > 6.31 µM (inactive)
Ki [6]: > 2.51 µM (inactive)
Ki [7]: > 2.51 µM (inactive)
Ki [8]: > 5.01 µM (inactive)
Ki [9]: > 5.01 µM (inactive)
Ki [10]: > 6.31 µM (inactive)
Ki [11]: 0.1 µM (active)
Ki [12]: > 3.98 µM (inactive)
Ki [13]: > 7.94 µM (inactive)
Ki [14]: > 2.51 µM (inactive)
AC50 (Cytochrome P450 1A2): 15.8 µM (inconclusive)
Ki [15]: > 2.51 µM (inactive)
Ki [16]: > 3.16 µM (inactive)
Ki [17]: > 5.01 µM (inactive)
Ki [18]: > 6.31 µM (inactive)
Ki [19]: > 5.01 µM (inactive)
Ki [20]: > 3.98 µM (inactive)
Ki [21]: > 3.98 µM (inactive)
Ki [22]: > 2.51 µM (inactive)
Ki [23]: > 3.98 µM (inactive)
Ki [24]: > 3.98 µM (inactive)
Ki [25]: > 3.98 µM (inactive)
Ki [26]: > 3.98 µM (inactive)
Ki [27]: > 3.16 µM (inactive)
Ki [28]: > 6.31 µM (inactive)
Ki [29]: > 3.98 µM (inactive)
Ki [30]: > 3.98 µM (inactive)
Ki [31]: > 3.98 µM (inactive)
